For series [1], the system named is thymidylate synthase (TS) protein. Put plainly: Immunoblot analysis of TS protein (free and ITC-bound), Odyssey quantitation. In kind it is cell-based, human. The following applies: RKO cells, ssiRNA 10 nM, pre vs. 0 hr.
For series [2], the system named is p53, Fas, cleaved PARP, γH2AX, p-ATM. The series can be described thus: Immunoblot of DNA damage and apoptosis signaling proteins, time course. In kind it is cell-based, human. The following applies: RKO cells, ssiRNA 10 nM, 0-72 hr. As to the method: FIG. 5 illustrates time-dependent effects of FdU-containing ssiRNAs on protein expression. RKO cells were transfected with various TS6 ssiRNAs (10 nM). After 6 hr, the medium was replaced, and cells were harvested for immunoblot blot analysis at the following times: before39 transfection (pre) and 0, 24, 48, and 72 hr after transfection. Images shown are representative blots from at least 4 different experiments; and
(§1) Protein concentrations of cell lysates were determined using the DC Protein Assay (Bio-Rad; Hercules, Calif.). Equal amounts of protein (30 μg) from each cell lysate were resolved on SDS-PAGE using the method of Laemmli (Reference 19) and transferred onto 0.45 μm nitrocellulose membranes (Bio-Rad). Membranes were blocked and incubated overnight with primary antibodies at 4° C. The following antibodies were used in the experiments: anti-TS (Clone 4H4B1; Invitrogen), anti-TS (#5449; Cell Signaling; San Francisco, Calif.), anti-p21 Waf1/Cip1 (#2947; Cell Signaling), anti-p53 (#sc-126; Santa Cruz Biotechnology; Santa Cruz, Calif.), anti-PARP (#9542; Cell Signaling), anti-Fas (#4233; Cell Signaling), anti-phospho-histone H2A.X (Ser139) (#2577; Cell Signaling), anti-histone H2A.X (#7631; Cell Signaling), anti-phospho-ATM (pS1981; EPITOMICS Inc.; Burlingame, Calif.), anti-ATM (#A1106; Sigma), and anti-α-tubulin (EMD Biosciences; San Diego, Calif.). After multiple TBST washes (1×TBS, 0.1% Tween-20), membranes were incubated with corresponding horseradish peroxidase-conjugated secondary antibodies (Bio-Rad) for 1 hr at room temperature. Proteins were detected by the enhanced chemiluminescence method (SuperSignal West Pico substrate; Pierce; Rockford, Ill.). Quantitation of signal intensities was performed by densitometry on a Xerox scanner using NIH IMAGEJ software.

Series [3] concerns human colon cancer RKO cell line. The series can be described thus: Clonogenic assay in RKO cells. The following applies: 6 hr exposure, colonies counted after 8 days, mean ± S.D., at least 3 experiments. The class given is cell-based. As to the method:
RKO cells were plated in 6-well plates at a density of 600 cells/well. On the following day, cells were transfected with ssiRNA/LF2000 complexes for 6 hr after which time, the growth medium was replaced. Similarly, FdU was added to wells for 6 hr followed by medium replacement. After 8 days, cell colonies were fixed with Trypan blue solution (75% methanol/25% acetic acid/0.25% trypan blue), washed, and air-dried before counting colonies >50 cells.

Series [4] concerns thymidylate synthase (TS) protein. Put plainly: Immunoblot analysis of TS protein (free and ITC-bound), Odyssey quantitation. The class given is cell-based, human. The following applies: RKO cells, 48 hr. As to the method: FIGS. 1A-B illustrate the effect of FdU incorporation in ssiRNA on TS protein expression. RKO cells were transfected with TS6 ssiRNAs (1 nM) containing various 3′-overhangs. After 6 hr, the medium was replaced. After an additional 48 hr, cells were harvested and processed for immunoblot and qPCR analysis as described in the Materials and Methods section. (A) Representative blot from 4 experiments. (B) All qPCR values represent the mean±S.D. from at least 3 separate experiments performed in triplicate. The normalized amount of TS mRNA from mock-transfected cells (LF2000) was set to 1.0 and all other values compared against that value. ITC, inhibitory ternary complex;
Cells were plated at a density of 1.5×10^5 cells/well. On the following day, ssiRNAs were complexed with Lipofectamine 2000 (LF2000, Invitrogen) in serum-free RPMI-1640 medium and added to the plated cells. After 48 hr, cells were rinsed with PBS and scraped in cell lysis buffer (10 mM Tris pH7.4, 150 mM NaCl, 1 mM EDTA, 1% IGEPAL, 0.5% sodium deoxycholate, and 0.1% SDS) containing freshly added Protease Inhibitor Cocktail (Sigma; St. Louis, Mo.), 1 mM phenylmethylsulfonyl fluoride, and phosphatase inhibitors (Sigma). Lysates were sonicated and then centrifuged at 14,000 rpm for 30 min at 4° C. to remove debris. Cell lysates were stored at −80° C. for future use. For mRNA analysis, total RNA was extracted using Trizol (Invitrogen) and stored at −80° C. for future use.
as §1
Immunoblots were prepared as described above. After incubation with anti-TS polyclonal antibody, membranes were blocked with the Odyssey blocking buffer and incubated with IRDye 800CW goat anti-rabbit antibody (LI-COR Biosciences; Lincoln, Nebr., USA) according to the manufacturer instructions. The fluorescent signal was detected and quantified using the Odyssey infrared imaging system (LI-COR).
In general terms: Immunoblotting shows a protein as a band on a membrane.

These results are taken from patent US9096853B2, “Modified siRNA molecules incorporating 5-fluoro-2′-deoxyuridine residues to enhance cytotoxicity” (U.S. Department of Veterans Affairs, priority 2012, dated 2015).

d = 2'-deoxy (DNA); r = 2'-OH (RNA)

A word on the IC50: it is the concentration needed to halve the response being measured. A low value points to greater potency in that assay. Take “TS6-dU/dA: unmodified TS-targeted ssiRNA, 5 dU on 3′-end of sense strand, 5 dA on 3′-end of antisense strand; SEQ ID NO: 3 and 4 (sense GGAUAUUGUCAGUCUUUAGGUUUUU; antisense CCUAAAGACUGACAAUAUCCAAAAA; sense: sugars from the 5' end r20 d5, backbone and T or U not given here; antisense: sugars from the 5' end r20 d5, backbone not given here)”: in series [1], the “TS protein levels immediately after transfection” value is listed as “minimally affected”. The “biomarkers of DNA damage, γH2AX and p-ATM” value in series [2] is recorded as “little to no effect”. The substance also came in with an IC50 in series [3] of 1.77 nM. In addition, in series [4] (1 nM), the “suppression of expression of TS protein” value is about 80%. The “Free TS (%)” value in series [4] (ssiRNA 1 nM, normalized to free TS protein in mock-transfected cells (LF2000) set to 100%, mean ± S.D., 6 experiments) was 22.6 ± 7.5%.
